Measurements taken from patent publication US20080255121A1, “Combination Drug for Treating Autoimmune Disease” (DAINIPPON SUMITOMO PHARMA CO., LTD., priority 2004, published 2008).
“And” between values parts separate entries of the source, which are not always exact repeats. Equal values may be shown once.

Tests used:
[1] = test system: experimental allergic encephalomyelitis mice; test: Experimental allergic encephalomyelitis, Compound (I); format: in vivo
Description: The severity of the condition was indicated as a score (disease score) according to the following criteria.
0.5: Slight paralysis of tail
2: Light paralysis of hind paw
3: Medium to intense paralysis of hind paw or light forelimb paralysis
4: Complete paralysis of hind paw or medium to intense paralysis of forelimb
5: Paralysis of four limbs or toward death period
In the prednisolone administered group as a positive control, prednisolone was suspended in 0.5% methylcellulose solution to prepare a liquid of 0.3 mg/ml for administration and 0.1 ml per 10 g mouse weight was orally administered. In a control group, only 0.5% methylcellulose solution was […] administered. The administration was started on the sensitization day and carried out once a day for consecutive 40 days.

[2] = test system: adjuvant-induced arthritis rats; test: Combination effect on adjuvant-induced arthritis (Example 19); format: in vivo, rat
Procedure: Combination effect for rat adjuvant-induced arthritis was examined in the same manner as in Example 17.
The volume of the left hind paw was measured by water replacement method just before the administration and after the last administration, and AUC (the area under the curve formed by plotting the difference of the value at the time of grouping from the value of each time point during the administration period against the time) of the increased volume of the left hind paw was determined. Joint destruction of the right hind paw (injected paw) and the left hind paw (non-injection paw) can be measured by X-ray and this can be also used as the index to evaluate the combination effect.

[3] = Dose 20 mg/kg oral once a day 40 days
[4] = Dose 40 mg/kg oral once a day 40 days

C[C@@H](c1ccc(-c2ccccc2)c(F)c1)c1cc(/N=C(/N)N2CCOCC2)on1 [Compound (I), 3-[(1S)-1-(2-fluorobiphenyl-4-yl)ethyl]-5-{[amino(morpholin-4-yl)methylene]amino}isoxazole]
disease score ([1]; 20, 40, 80 mg/kg oral once a day 40 days, FIG. 13): suppressed the disease score at any dose
Death Rate [1, 3]: 0/10
Onset Rate [1, 3]: 8/10
Death Rate [1, 4]: 0/10
Onset Rate [1, 4]: 7/10
Onset Rate ([1]; Dose 80 mg/kg oral once a day 40 days): 8/10
Death Rate ([1]; Dose 80 mg/kg oral once a day 40 days, 80 mg/kg): 1 of 10 and 1/10
increased volume and onset ratio of left hind paw ([2]; only Compound (I) 20 mg/kg oral once a day 17 days): edema suppressing effect
increased volume and onset ratio of left hind paw ([2]; only Compound (I) 40 mg/kg and 80 mg/kg oral once a day 17 days): onset suppressing effect and edema suppressing effect
